Values after ≈ are worked out from the molar mass of the structure shown. Active and inactive are the calls of the source. The calls are words filed in the database; no cut-off is given here.
Assays:
Escherichia coli [1] = assay: Antibacterial activity against Escherichia coli ATCC 8739 incubated for 24 hrs by broth microdilution method; format: functional
Staphylococcus aureus [2] = assay: Antibacterial activity against Staphylococcus aureus ATCC 6538P incubated for 24 hrs by broth microdilution method; format: functional
[3] = Hemolytic activity in rabbit RBC assessed as hemolysis rate at 10 times MIC incubated for 3 hrs by ultraviolet spectrophotometry analysis relative to control; format: toxicity, cell-based, Oryctolagus cuniculus, Erythrocyte; settings: rabbit red blood cells (erythrocytes), read-out: Activity
Escherichia coli [4] = assay: Ratio of MBC to MIC against Escherichia coli ATCC 8739 measured after 24 hrs; format: functional
Staphylococcus aureus [5] = assay: Ratio MBC to MIC methicillin resistant Staphylococcus aureus ATCC 33591 measured after 24 hrs; format: functional
Staphylococcus aureus [6] = assay: Ratio MBC to MIC against Staphylococcus aureus ATCC 6538P measured after 24 hrs; format: functional
Staphylococcus aureus [7] = assay: Antibacterial activity against methicillin resistant Staphylococcus aureus ATCC 33591 incubated for 24 hrs by broth dilution method; format: functional
Staphylococcus aureus [8] = assay: Potency index, ratio of norfloxacin MIC to test compound MIC for antibacterial activity against methicillin resistant Staphylococcus aureus ATCC 33591 incubated for 24 hrs by broth dilution method; format: functional
Escherichia coli [9] = assay: Noncompetitive inhibition of Escherichia coli ATCC 8739 UPPS using varying concentrations of farnesyl pyrophosphate as substrate assessed as decrease in Vmax with constant Km at 0 to 64 microg/mL incubated for 30 mins by Lineweaver-Burk plot analysis; settings: dose 0-64 µg/ml
Staphylococcus aureus [10] = assay: Induction of resistance development in methicillin resistant Staphylococcus aureus ATCC 33591 assessed as fold increase in MIC incubated for 24 hrs and measured at 10th generation relative to first generation; format: functional
Staphylococcus aureus [11] = assay: Inhibition of biofilm formation in methicillin resistant Staphylococcus aureus ATCC 33591 at 0.5 times MIC incubated for 24 hrs by crystal violet staining based assay relative to control; format: functional
[12] = Hemolytic activity in rabbit RBC assessed as hemolysis rate at 2 times MIC incubated for 3 hrs by ultraviolet spectrophotometry analysis relative to control; format: toxicity, cell-based, Oryctolagus cuniculus, Erythrocyte; settings: rabbit red blood cells (erythrocytes), read-out: Activity
Staphylococcus aureus [13] = assay: Inhibition of biofilm formation in methicillin resistant Staphylococcus aureus ATCC 33591 at 0.25 times MIC incubated for 24 hrs by crystal violet staining based assay relative to control; format: functional
Staphylococcus aureus [14] = assay: Bactericidal activity against methicillin resistant Staphylococcus aureus ATCC 33591 at 1 times MIC measured after 4 hrs by time kill assay; format: functional
[15] = (§1) Inhibition of Escherichia coli ATCC 8739 UPPS using farnesyl pyrophosphate and isopentenyl pyrophosphate as a substrates preincubated for 30 min followed by EcPPA addition and measured after 30 min by malachite green dye based absorbance analysis
Escherichia coli [16] = assay: as §1; settings: time 60.0 min
Staphylococcus aureus [17] = assay: Bactericidal activity against methicillin resistant Staphylococcus aureus ATCC 33591 at 2 to 4 times MIC measured after 2 hrs by time kill assay; format: functional
[18] = Hemolytic activity in rabbit RBC assessed as hemolysis rate at 6 times MIC incubated for 3 hrs by ultraviolet spectrophotometry analysis relative to control; format: toxicity, cell-based, Oryctolagus cuniculus, Erythrocyte; settings: rabbit red blood cells (erythrocytes), read-out: Activity
[19] = Hemolytic activity in rabbit RBC assessed as hemolysis rate at 8 times MIC incubated for 3 hrs by ultraviolet spectrophotometry analysis relative to control; format: toxicity, cell-based, Oryctolagus cuniculus, Erythrocyte; settings: rabbit red blood cells (erythrocytes), read-out: Activity
Staphylococcus aureus [20] = assay: Anti-biofilm activity against methicillin resistant Staphylococcus aureus ATCC 33591 assessed as biofilm eradication at MIC incubated for 24 hrs by crystal violet staining based assay relative to control; format: functional
[21] = Hemolytic activity in rabbit RBC assessed as hemolysis rate at 4 times MIC incubated for 3 hrs by ultraviolet spectrophotometry analysis relative to control; format: toxicity, cell-based, Oryctolagus cuniculus, Erythrocyte; settings: rabbit red blood cells (erythrocytes), read-out: Activity
Staphylococcus aureus [22] = assay: Anti-biofilm activity against methicillin resistant Staphylococcus aureus ATCC 33591 assessed as biofilm eradication incubated for 24 hrs by crystal violet staining based assay; format: functional, organism-based
Staphylococcus aureus [23] = assay: Bactericidal activity against methicillin resistant Staphylococcus aureus ATCC 33591 at 1 to 4 times MIC incubated for 24 hrs by time kill assay; format: functional, organism-based

Row | Compound | MIC (Escherichia coli [1]) | MIC (Staphylococcus aureus [2]) | hemolysis at 3 h, 10 x MIC [3] | Ratio (Escherichia coli [4]) | Ratio (Staphylococcus aureus [5]) | Ratio (Staphylococcus aureus [6]) | MIC (Staphylococcus aureus [7]) | Ratio (Staphylococcus aureus [8]) | also measured
1 | C/C(=N\NC(=N)N)c1sc(N/N=C/c2cccc(O)c2)nc1C | 32 µg/mL (≈ 96.6 µM) | 8 µg/mL (≈ 24.1 µM) | < 5% | 1 | 1 | 2 | 32 µg/mL (≈ 96.6 µM) |  | 
2 | C/C(=N\NC(=N)N)c1sc(N/N=C/c2cc(F)ccc2F)nc1C | 16 µg/mL (≈ 45.5 µM) | 8 µg/mL (≈ 22.8 µM) | < 5% | 1 |  | 1 | 8 µg/mL (≈ 22.8 µM) | 8 | 
3 | C/C(=N\NC(=N)N)c1sc(N/N=C/c2ccccc2O)nc1C | 64 µg/mL (≈ 193 µM) | 32 µg/mL (≈ 96.6 µM) | < 5% | 1 |  | 1 | 64 µg/mL (≈ 193 µM) |  | 
4 | C/C(=N\NC(=N)N)c1sc(N/N=C/c2cncs2)nc1C | 64 µg/mL (≈ 198 µM) | 64 µg/mL (≈ 198 µM) | < 5% | 2 | 2 | >2 | 64 µg/mL (≈ 198 µM) |  | 
5 | C/C(=N\NC(=N)N)c1sc(N/N=C/c2ccc(-c3ccc(C(F)(F)F)cc3)cc2)nc1C | 8 µg/mL (≈ 17.4 µM) | 16 µg/mL (≈ 34.8 µM) | < 5% | 1 |  | 1 | 8 µg/mL (≈ 17.4 µM) | 8 | 
6 | COc1ccc(-c2ccc(/C=N/Nc3nc(C)c(/C(C)=N/NC(=N)N)s3)cc2)cc1 | 128 µg/mL (≈ 304 µM) | 32 µg/mL (≈ 75.9 µM) | < 5% | >1 | 1 | >1 | 32 µg/mL (≈ 75.9 µM) |  | 
7 | C/C(=N\NC(=N)N)c1sc(N/N=C/c2ccc(-c3cccs3)s2)nc1C | 8 µg/mL (≈ 19.8 µM) | 2 µg/mL (≈ 4.96 µM) | 3.3% | 1 | 1 | 2 | 8 µg/mL (≈ 19.8 µM) | 8 | inhibition (Escherichia coli [9]): Dose-Dependent Effect; fold change (FC) (Staphylococcus aureus [10]): 2; inhibition (INH) (Staphylococcus aureus [11]): 59%; hemolysis at 3 h, 2 x MIC [12]: 2.6%; inhibition (INH) (Staphylococcus aureus [13]): 44%; Activity (Staphylococcus aureus [14]): 100%; IC50 [15]: 145 µM; inhibition (Escherichia coli [16]): Dose-Dependent Effect; Activity (Staphylococcus aureus [17]): 100%; hemolysis at 3 h, 6 x MIC [18]: 1.7%; hemolysis at 3 h, 8 x MIC [19]: 1.3%; Activity (Staphylococcus aureus [20]): 70%; hemolysis at 3 h, 4 x MIC [21]: 2.1%; Activity (Staphylococcus aureus [22]): Dose-Dependent Effect
8 | C/C(=N\NC(=N)N)c1sc(N/N=C/c2ccc(N3CCCC3)cc2)nc1C | 32 µg/mL (≈ 83.2 µM) | 32 µg/mL (≈ 83.2 µM) | < 5% | 4 |  | 1 | 32 µg/mL (≈ 83.2 µM) |  | 
9 | C/C(=N\NC(=N)N)c1sc(N/N=C/c2cc(O)cc(O)c2)nc1C | 32 µg/mL (≈ 92.1 µM) | 32 µg/mL (≈ 92.1 µM) | < 5% | 1 |  | 1 | 64 µg/mL (≈ 184 µM) |  | 
10 | C/C(=N\NC(=N)N)c1sc(N/N=C/c2ccc(O)cc2)nc1C | 64 µg/mL (≈ 193 µM) | 32 µg/mL (≈ 96.6 µM) | < 5% | 1 | >1 | 2 | 128 µg/mL (≈ 386 µM) |  | 
11 | C/C(=N\NC(=N)N)c1sc(N/N=C/c2ccc(-n3cncn3)cc2)nc1C | > 128 µg/mL | > 128 µg/mL | < 5% |  |  |  | > 128 µg/mL |  | 
12 | C/C(=N\NC(=N)N)c1sc(N/N=C/c2ccccc2F)nc1C | 16 µg/mL (≈ 48 µM) | 16 µg/mL (≈ 48 µM) | < 5% | 1 |  | 1 | 8 µg/mL (≈ 24 µM) | 8 | 
13 | CCn1cc(C(=O)O)c(=O)c2cc(F)c(N3CCNCC3)cc21 [NORFLOXACIN] | 0.12 µg/mL (≈ 0.376 µM) | 0.25 µg/mL (≈ 0.783 µM) |  | >8 | >2 | 1 | 64 µg/mL (≈ 200 µM) |  | fold change (FC) (Staphylococcus aureus [10]): 4; Activity (Staphylococcus aureus [23]): inactive
14 | C/C(=N\NC(=N)N)c1sc(N/N=C/c2cccc(F)c2F)nc1C | 64 µg/mL (≈ 182 µM) | 16 µg/mL (≈ 45.5 µM) | < 5% | 2 | 1 | 2 | 16 µg/mL (≈ 45.5 µM) |  | 
15 | C/C(=N\NC(=N)N)c1sc(N/N=C/c2ccc(-c3ccc(F)cc3)cc2)nc1C | 16 µg/mL (≈ 39.1 µM) | 4 µg/mL (≈ 9.77 µM) | < 5% | 4 |  | 1 | 4 µg/mL (≈ 9.77 µM) | 16 | 
16 | C/C(=N\NC(=N)N)c1sc(N/N=C/C=C/c2c(F)cccc2F)nc1C | 32 µg/mL (≈ 84.8 µM) | 128 µg/mL (≈ 339 µM) | < 5% | 1 |  | 1 | 32 µg/mL (≈ 84.8 µM) |  | 
